Test [1] in a line: Inhibition of Neisseria meningitidis APN.
A further test deals with T1, Leucine aminopeptidase (Plasmodium falciparum 3D7, UniProt Q8IL11).
T1 sequence (Q8IL11 whole entry): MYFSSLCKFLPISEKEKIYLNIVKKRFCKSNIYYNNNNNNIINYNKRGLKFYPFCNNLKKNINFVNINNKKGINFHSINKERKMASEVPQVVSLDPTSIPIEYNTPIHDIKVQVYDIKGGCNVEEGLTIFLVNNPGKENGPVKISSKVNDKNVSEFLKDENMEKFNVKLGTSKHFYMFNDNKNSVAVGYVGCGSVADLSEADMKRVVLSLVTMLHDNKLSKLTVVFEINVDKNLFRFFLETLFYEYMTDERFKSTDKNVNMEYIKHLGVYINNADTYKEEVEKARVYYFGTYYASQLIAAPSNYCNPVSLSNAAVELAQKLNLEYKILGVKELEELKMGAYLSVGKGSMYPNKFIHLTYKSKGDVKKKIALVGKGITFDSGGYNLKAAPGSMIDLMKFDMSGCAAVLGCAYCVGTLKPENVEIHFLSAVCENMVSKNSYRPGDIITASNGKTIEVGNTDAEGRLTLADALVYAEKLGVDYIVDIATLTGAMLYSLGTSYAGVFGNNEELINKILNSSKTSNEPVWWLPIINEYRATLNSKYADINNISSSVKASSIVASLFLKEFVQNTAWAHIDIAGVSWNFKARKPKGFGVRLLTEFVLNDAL
Put plainly: Inhibition of Plasmodium falciparum LAP.

For test [2], the target named is T2, Macrophage metalloelastase (Homo sapiens, UniProt P39900). Put plainly: Inhibition of human MMP12.
Another test has as its target Collagenase 3 (Homo sapiens, UniProt P45452). Kind of test: Inhibition of human MMP13 by photoaffinity probe based assay.
The next test addresses Neutrophil collagenase (Homo sapiens, UniProt P22894). Kind of test: Inhibition of human MMP8 by photoaffinity probe based assay.
The target in test [3] is 72 kDa type IV collagenase (Homo sapiens, UniProt P08253). Kind of test: Inhibition of human MMP2 by photoaffinity probe based assay.
Test [4] has as its target T2, Macrophage metalloelastase. Put plainly: Inhibition of human MMP12 by photoaffinity probe based assay.
The target of test [5] is Matrix metalloproteinase-9 (Homo sapiens, UniProt P14780). Kind of test: Inhibition of human MMP9 by photoaffinity probe based assay.
Test [6] deals with T3, Leukotriene A-4 hydrolase (Homo sapiens, UniProt P09960).
T3 sequence (P09960 whole entry): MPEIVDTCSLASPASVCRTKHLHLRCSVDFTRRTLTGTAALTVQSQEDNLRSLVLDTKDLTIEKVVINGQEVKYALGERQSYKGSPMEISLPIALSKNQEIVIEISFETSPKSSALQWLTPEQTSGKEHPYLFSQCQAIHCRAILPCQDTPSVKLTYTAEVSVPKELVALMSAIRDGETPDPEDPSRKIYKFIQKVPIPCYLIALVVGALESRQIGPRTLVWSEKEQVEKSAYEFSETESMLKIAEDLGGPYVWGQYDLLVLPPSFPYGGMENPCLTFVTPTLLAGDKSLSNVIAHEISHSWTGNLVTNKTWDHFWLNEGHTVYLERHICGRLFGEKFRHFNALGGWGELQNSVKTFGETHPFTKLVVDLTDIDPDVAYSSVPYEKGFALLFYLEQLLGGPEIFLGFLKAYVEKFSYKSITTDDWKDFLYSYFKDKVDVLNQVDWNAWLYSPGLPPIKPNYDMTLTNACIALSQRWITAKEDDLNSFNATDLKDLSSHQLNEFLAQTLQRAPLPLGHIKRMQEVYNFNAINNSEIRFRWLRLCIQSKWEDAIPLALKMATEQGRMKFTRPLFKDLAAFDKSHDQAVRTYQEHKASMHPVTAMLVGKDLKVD
Kind of test: Inhibition of human recombinant LTA4H by L-(4-benzoyl)phenylalanyl-beta-naphthylamide fluorigenic substrate by fluorescence based assay.

Test [7] is described as follows: Inhibition of Helicobacter pylori Csd4.
Test [8] is described as follows: Inhibition of Plasmodium falciparum APN.

Each structure is given as a SMILES string.

T2 sequence (P39900 whole entry): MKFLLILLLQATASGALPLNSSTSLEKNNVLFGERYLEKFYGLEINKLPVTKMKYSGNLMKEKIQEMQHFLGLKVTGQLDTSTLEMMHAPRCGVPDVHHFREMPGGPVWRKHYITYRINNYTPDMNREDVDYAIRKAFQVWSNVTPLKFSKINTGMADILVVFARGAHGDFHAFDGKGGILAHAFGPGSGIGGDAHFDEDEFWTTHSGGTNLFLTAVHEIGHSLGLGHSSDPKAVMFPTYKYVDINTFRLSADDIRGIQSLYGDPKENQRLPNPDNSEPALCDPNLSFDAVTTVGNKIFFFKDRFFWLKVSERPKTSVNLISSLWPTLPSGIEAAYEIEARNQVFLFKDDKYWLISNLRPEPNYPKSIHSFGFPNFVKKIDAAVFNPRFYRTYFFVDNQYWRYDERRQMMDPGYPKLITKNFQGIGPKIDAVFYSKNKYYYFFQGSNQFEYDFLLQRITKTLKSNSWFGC
Sequence of Neutrophil collagenase (P22894 whole entry): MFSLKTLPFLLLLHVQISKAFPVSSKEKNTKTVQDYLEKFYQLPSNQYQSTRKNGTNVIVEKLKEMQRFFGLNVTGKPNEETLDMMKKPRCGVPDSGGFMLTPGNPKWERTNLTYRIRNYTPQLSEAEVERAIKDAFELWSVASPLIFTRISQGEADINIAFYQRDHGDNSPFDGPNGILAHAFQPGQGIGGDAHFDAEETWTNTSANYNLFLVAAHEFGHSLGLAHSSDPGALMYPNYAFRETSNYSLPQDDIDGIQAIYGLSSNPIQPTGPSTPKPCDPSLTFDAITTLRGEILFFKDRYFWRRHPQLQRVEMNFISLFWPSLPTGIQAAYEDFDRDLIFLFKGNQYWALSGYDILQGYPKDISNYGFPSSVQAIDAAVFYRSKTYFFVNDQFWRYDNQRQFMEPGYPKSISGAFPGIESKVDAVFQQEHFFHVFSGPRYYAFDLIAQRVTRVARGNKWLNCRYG
Sequence of Matrix metalloproteinase-9 (P14780 whole entry): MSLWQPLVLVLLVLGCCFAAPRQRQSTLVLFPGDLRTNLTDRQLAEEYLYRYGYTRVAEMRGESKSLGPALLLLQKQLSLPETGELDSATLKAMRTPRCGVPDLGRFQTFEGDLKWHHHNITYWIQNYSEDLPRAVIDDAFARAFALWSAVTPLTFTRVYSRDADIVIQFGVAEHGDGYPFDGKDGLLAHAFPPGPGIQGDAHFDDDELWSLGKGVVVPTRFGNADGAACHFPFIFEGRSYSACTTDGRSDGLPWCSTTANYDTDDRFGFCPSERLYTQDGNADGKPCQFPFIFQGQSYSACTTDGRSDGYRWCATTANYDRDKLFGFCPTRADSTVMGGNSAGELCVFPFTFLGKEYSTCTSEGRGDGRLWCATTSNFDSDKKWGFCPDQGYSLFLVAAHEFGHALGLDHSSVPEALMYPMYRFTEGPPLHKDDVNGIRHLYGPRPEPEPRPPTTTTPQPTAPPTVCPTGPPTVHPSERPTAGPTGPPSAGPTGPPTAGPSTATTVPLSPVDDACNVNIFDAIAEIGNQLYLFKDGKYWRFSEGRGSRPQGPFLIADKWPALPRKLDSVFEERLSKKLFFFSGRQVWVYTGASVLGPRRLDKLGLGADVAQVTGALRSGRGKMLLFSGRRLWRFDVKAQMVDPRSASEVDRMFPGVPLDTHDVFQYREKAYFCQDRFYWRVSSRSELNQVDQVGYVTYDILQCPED
Sequence of 72 kDa type IV collagenase (P08253 whole entry): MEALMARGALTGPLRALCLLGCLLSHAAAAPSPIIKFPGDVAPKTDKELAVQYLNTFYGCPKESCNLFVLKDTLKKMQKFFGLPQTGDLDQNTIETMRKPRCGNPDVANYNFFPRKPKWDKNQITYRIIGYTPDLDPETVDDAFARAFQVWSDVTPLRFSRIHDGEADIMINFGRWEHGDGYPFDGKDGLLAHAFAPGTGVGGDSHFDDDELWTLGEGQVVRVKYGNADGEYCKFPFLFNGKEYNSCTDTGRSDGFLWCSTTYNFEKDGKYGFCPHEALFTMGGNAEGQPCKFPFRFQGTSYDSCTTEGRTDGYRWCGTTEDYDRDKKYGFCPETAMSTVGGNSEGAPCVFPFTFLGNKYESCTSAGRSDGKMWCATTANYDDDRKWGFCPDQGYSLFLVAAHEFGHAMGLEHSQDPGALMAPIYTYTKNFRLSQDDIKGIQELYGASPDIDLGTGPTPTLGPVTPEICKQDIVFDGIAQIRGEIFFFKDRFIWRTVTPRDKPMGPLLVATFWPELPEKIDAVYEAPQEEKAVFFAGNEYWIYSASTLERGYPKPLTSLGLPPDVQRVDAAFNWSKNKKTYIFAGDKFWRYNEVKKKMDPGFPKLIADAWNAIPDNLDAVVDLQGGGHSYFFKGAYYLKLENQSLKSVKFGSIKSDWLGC

In the case of `NC(CCc1ccccc1)P(=O)(O)CC(Cc1ccccc1)C(=O)O` (stereo not given), the Ki in [1] was 302 nM; at Leucine aminopeptidase it was 13 nM.

In [2], `CC[N+]1=C(/C=C/C=C/C=C2/N(CCCCCC(=O)NCCCOCCOCCOCCCNC(=O)[C@H](CCC(=O)O)NC(=O)[C@H](C)NC(=O)[C@H](Cc3cc(-c4ccc(-c5cccc(Cl)c5)cc4)no3)CP(=O)(O)c3ccc(Br)cc3)c3ccc4c(S(=O)(=O)O)cc(S(=O)(=O)O)cc4c3C2(C)C)C(C)(C)c2c1ccc1c(S(=O)(=O)[O-])cc(S(=O)(=O)O)cc21` yielded an inhibitory constant (Ki) of 0.9 nM.

With `[3H]CC([3H])C(=O)NCCCOCCOCCOCCCNC(=O)[C@H](CO)NC(=O)[C@H](CC)NC(=O)[C@H](Cc1cc(-c2ccc(C3(C(F)(F)F)N=N3)cc2)no1)CP(=O)(O)c1ccccc1` (stereo not given in full), the inhibition constant (Ki) on Collagenase 3 was 1.6 nM; at Neutrophil collagenase it was 0.6 nM; in test [3] it was 0.5 nM; in test [4], 1 nM; in test [5], 2.6 nM.

As to `CC(=O)N1CCC(CP(=O)(O)[C@H](C)N)(C(=O)N[C@@H](C)C(=O)O)CC1`, in test [6], the Ki is 5.3 nM.

Regarding `C[C@H](NC(=O)C1(CP(=O)(O)[C@H](C)N)CCCC1)C(=O)O`, the Ki in test [6] is 4.6 nM.

In the case of `C[C@H](NC(=O)[C@H](Cc1cc(-c2ccc(-c3cccc(Cl)c3)cc2)no1)CP(=O)(O)c1ccc(Br)cc1)C(=O)N[C@@H](CCC(=O)O)C(N)=O`, in [2], the inhibition constant (Ki) is 0.26 nM.

The compound `CC(=O)N[C@H](CCP(=O)(O)CC(CCC[C@@H](N)C(=O)O)C(=O)O)C(=O)O` (stereo not given in full) showed a Ki in [7] of 1500 nM.

In the case of `NC(CCc1ccccc1)P(=O)(O)CC(Cc1ccc(O)cc1)C(=O)O` (stereo not given), the figures for the Ki (in test [1]; at Leucine aminopeptidase; in [8]) were 54 nM, 10 nM and 232 nM, respectively.

(Values after ChEMBL document CHEMBL4316613, “Recent developments in the synthesis and applications of phosphinic peptide analogs” (Bioorg Med Chem Lett, 2019).)
